Data on 28 molecules can be found in paper PMC6401531 (ChemistryOpen, 2019).

Where “and” joins values, the source holds several entries; their conditions need not be identical. Identical values can stand only once. Like-named read-outs stand apart in the source and are kept apart here. Where only a bound is given, the exact number is not on record here.

Usually EC50 stands for the concentration at which the effect is half-maximal.

Test [1] deals with hH2R (Homo sapiens, UniProt P25021+P63092). Nature of the test: [35S]GTPγS binding assay, Sf9 membranes. It counts as biochemical. Background: GTPγS is a poorly hydrolysed GTP analogue; its binding reports G protein activation.
Test [2] concerns the target hH3R (Homo sapiens, UniProt Q9Y5N1). Nature of the test: [35S]GTPγS binding assay, Sf9 membranes. It counts as biochemical.
The target of test [3] is hH4R (Homo sapiens, UniProt Q9H3N8). As to the kind of experiment: [35S]GTPγS binding assay, Sf9 membranes. It counts as biochemical.
The target in test [4] is T1, gpH2R (atrium) (Cavia porcellus, UniProt P47747). As to the kind of experiment: Organ bath study on isolated guinea pig right atrium. The conditions noted are these: for Emax gpH2R: maximal response relative to maximal increase in heart rate induced by histamine (Emax=1.00).
Test [5] addresses gpH1R (ileum) (Cavia porcellus, UniProt P31389). Nature of the test: Organ bath study on isolated guinea pig ileum.
Test [6] concerns the target T1, gpH2R (atrium). The conditions noted are these: guinea-pig right atrium, cited from earlier work.
The mark [7] stands for this setting: [35S]GTPγS binding, maximal response relative to histamine (Emax=1.00).

Chain of hH3R (Q9Y5N1 whole entry): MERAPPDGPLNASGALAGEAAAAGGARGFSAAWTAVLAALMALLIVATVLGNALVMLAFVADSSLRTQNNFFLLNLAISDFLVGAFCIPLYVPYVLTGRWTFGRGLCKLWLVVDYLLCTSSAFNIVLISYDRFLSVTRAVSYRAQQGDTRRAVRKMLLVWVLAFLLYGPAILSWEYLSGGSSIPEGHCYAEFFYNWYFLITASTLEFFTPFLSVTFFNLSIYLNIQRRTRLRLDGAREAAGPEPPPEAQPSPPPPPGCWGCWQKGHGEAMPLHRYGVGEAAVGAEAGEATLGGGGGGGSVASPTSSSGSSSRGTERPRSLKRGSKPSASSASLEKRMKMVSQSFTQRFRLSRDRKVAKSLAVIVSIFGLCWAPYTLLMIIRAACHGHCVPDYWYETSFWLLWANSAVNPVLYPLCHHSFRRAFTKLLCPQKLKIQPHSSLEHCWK
T1 sequence (P47747 whole entry): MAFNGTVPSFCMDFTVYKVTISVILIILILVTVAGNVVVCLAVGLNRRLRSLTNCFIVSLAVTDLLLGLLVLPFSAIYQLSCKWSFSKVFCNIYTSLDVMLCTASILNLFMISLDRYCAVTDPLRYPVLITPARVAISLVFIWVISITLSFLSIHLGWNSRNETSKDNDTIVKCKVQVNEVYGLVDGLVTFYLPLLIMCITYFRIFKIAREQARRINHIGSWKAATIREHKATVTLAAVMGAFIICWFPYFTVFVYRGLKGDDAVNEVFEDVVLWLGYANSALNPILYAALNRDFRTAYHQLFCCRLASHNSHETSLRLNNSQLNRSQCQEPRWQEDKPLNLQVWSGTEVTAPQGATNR
Chain of gpH1R (ileum) (P31389 whole entry): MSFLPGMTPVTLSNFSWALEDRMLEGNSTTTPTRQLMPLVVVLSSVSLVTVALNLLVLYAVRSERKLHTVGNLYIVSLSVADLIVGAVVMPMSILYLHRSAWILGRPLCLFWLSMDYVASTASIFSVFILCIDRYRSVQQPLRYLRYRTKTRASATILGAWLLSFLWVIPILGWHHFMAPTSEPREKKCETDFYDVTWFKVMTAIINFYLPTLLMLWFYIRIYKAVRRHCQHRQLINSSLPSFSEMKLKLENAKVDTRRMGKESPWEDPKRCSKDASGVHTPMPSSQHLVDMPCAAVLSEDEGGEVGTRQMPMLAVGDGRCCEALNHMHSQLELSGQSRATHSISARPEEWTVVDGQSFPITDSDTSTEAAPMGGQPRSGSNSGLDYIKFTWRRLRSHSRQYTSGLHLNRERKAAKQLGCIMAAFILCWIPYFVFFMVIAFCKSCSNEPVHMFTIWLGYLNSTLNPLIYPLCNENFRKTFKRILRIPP
Chain of hH4R (Q9H3N8 whole entry): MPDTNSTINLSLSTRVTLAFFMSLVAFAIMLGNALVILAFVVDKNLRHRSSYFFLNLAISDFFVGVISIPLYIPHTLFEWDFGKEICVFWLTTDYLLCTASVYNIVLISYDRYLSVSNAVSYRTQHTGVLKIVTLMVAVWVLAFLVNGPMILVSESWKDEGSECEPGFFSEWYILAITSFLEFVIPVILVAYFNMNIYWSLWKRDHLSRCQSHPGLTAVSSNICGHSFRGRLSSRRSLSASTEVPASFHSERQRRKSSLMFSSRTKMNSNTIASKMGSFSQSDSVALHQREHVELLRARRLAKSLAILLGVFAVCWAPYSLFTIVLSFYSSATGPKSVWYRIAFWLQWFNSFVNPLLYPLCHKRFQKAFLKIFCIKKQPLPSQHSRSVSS

As to `NCCc1c[nH]cn1` [compound 1, histamine, reference compound], the “Emax hH2R” value in test [1] (setting [7]) is given as 1.00. For the same molecule, the “Emax hH3R” value in test [2] (setting [7]) is 1.00. Also, the “Emax hH4R” value in test [3] (setting [7]) was determined as 1.00. The “Emax gpH2R” value in test [4] is 1.00.

In test [5], `N=C(NCCCN)NCCCc1c[nH]cn1` [compound 115, 1‐(3‐Aminopropyl)‐3‐[3‐(1H‐imidazol‐4‐yl)propyl]guanidine] showed a Kb of 16600 nM. In test [4], the EC50 is 4680 nM and the “Emax gpH2R” value was found to be 0.88±0.05.

As for `N=C(NCCCCN)NCCCc1c[nH]cn1` [compound 116], the Kb in test [5] is 3800 nM. In test [4], the response was half-maximal at 7410 nM (EC50) and the “Emax gpH2R” value stood at 0.68±0.02.

Consider `N=C(NCCCCCCN)NCCCc1c[nH]cn1` [compound 117], for which the Kb in test [5] is 6310 nM. Also, in test [4], a half-maximal effect (EC50) was put at 380 nM and the “Emax gpH2R” value is 0.79±0.01.

In the case of `N=C(NCCCCCCCCN)NCCCc1c[nH]cn1` [compound 118], in test [5], the Kb is 1290 nM. In test [4], the response was half-maximal at 309 nM (EC50) and the “Emax gpH2R” value was determined as 0.75±0.10.

As for `N=C(NCCCCCCCCCCN)NCCCc1c[nH]cn1` [compound 119], in test [5], the Kb was 676 nM. Moreover, in test [4], the concentration giving a half-maximal response (EC50) was 389 nM and the “Emax gpH2R” value came to 0.78±0.01.

For the molecule `N=C(NCCCCCCCCCCCCN)NCCCc1c[nH]cn1` [compound 120], in test [1], the “Emax hH2R” value is listed as 0.66±0.01. Moreover, in test [2], the “Emax hH3R” value came out at 0 and the Kb was 191 nM. In addition, in test [3], the “Emax hH4R” value amounted to 0 and the Kb turned out to be 372000 nM. In test [5], the Kb was 112 nM. For the same molecule, in test [4], the EC50 is 138 nM; the “Emax gpH2R” value was 1.00 and 1.00±0.06.

In the case of `Cc1nc(N)sc1CCCNC(=N)NCCCCCCCCCCCCN` [compound 121], in test [1], the “Emax hH2R” value is 0.22 and 0.22±0.01. Further, the “Emax hH3R” value in test [2] is reported as −0.69±0.03. In test [3], the “Emax hH4R” value came to 0 and the Kb was 178000 nM. Further, in test [5], the Kb was found to be 70.8 nM. In addition, in test [4], the EC50 was 324 nM and the “Emax gpH2R” value came to 0.71±0.03.

In test [5], `N=C(NCCCCCCCCCCCCN)NCCCc1cnc(N)s1` [compound 122] had a Kb of 9.33 nM. For the same molecule, in test [4], a half-maximal effect (EC50) was put at 234 nM and the “Emax gpH2R” value is 0.90±0.05.

In turn, `N=C(N)NCCCCNC(=N)NCCCc1c[nH]cn1` [compound 123] showed a Kb in test [5] of 2630 nM. Further, in test [4], the response was half-maximal at 50.1 nM (EC50); the “Emax gpH2R” value is 1.03 and 1.03±0.03.

In test [5], `N=C(N)NCCCCCCNC(=N)NCCCc1c[nH]cn1` [compound 124] showed a Kb of 933 nM. In test [4], it took 21.4 nM to reach a half-maximal effect (EC50) and the “Emax gpH2R” value is 0.94±0.02.

Turning to `N=C(N)NCCCCCCCCNC(=N)NCCCc1c[nH]cn1` [compound 125], the Kb in test [5] is 1620 nM. Further, in test [4], the half-maximal effective concentration (EC50) is 20.4 nM; the “Emax gpH2R” value was 0.83 and 0.83±0.07.

The molecule `N=C(N)NCCCCCCCCCCNC(=N)NCCCc1c[nH]cn1` [compound 126] gave a Kb in test [5] of 251 nM. In test [4], the EC50 was 27.5 nM and the “Emax gpH2R” value is on record as 0.80±0.02.

As to `N=C(N)NCCCCCCCCCCCCNC(=N)NCCCc1c[nH]cn1` [compound 127], in test [1], the “Emax hH2R” value amounted to 0.45±0.03. For the same molecule, in test [2], the “Emax hH3R” value is 0 and the Kb is 66.1 nM. Besides, in test [3], the “Emax hH4R” value was determined as 0 and the Kb was 417000 nM. For the same molecule, the Kb in test [5] is 60.3 nM. For the same molecule, in test [4], the EC50 is 56.2 nM and the “Emax gpH2R” value is 0.77±0.07.

As to `Cc1nc(N)sc1CCCNC(=N)NCCCCCCCCNC(=N)N` [compound 128], the Kb in test [5] is 214 nM. In test [4], the half-maximal effective concentration (EC50) is 135 nM and the “Emax gpH2R” value came out at 0.72±0.02.

With `N=C(N)NCCCCCCCCNC(=N)NCCCc1cnc(N)s1` [compound 129], the Kb in test [5] was 50.1 nM. In test [4], the EC50 is 38.9 nM and the “Emax gpH2R” value is recorded as 1.00±0.01.

Regarding `Cc1nc(N)sc1CCCNC(=N)NCCCCCCCCCCCCNC(=N)N` [compound 130], the “Emax hH2R” value in test [1] was 0.22 and 0.22±0.01. Besides, in test [2], the “Emax hH3R” value is listed as −1.21±0.10. Moreover, the Kb in test [5] was 174 nM. Also, in test [4], the EC50 was 95.5 nM and the “Emax gpH2R” value came to 0.90±0.04.

Regarding `N=C(N)NCCCCCCCCCCCCNC(=N)NCCCc1cnc(N)s1` [compound 131], the Kb in test [5] was 8.71 nM. In test [4], the concentration giving a half-maximal response (EC50) was 117 nM and the “Emax gpH2R” value stood at 0.85±0.05.

The molecule `N=C(NCCCNC(N)=O)NCCCc1c[nH]cn1` [compound 132] had a Kb in test [5] of 9120 nM. Further, in test [4], the EC50 was 2450 nM and the “Emax gpH2R” value was determined as 0.89±0.03.

`N=C(NCCCCNC(N)=O)NCCCc1c[nH]cn1` [compound 133] showed a Kb in test [5] of 6030 nM. Besides, in test [4], the EC50 is 288 nM and the “Emax gpH2R” value was 1.03±0.03.

Take `N=C(NCCCCCCNC(N)=O)NCCCc1c[nH]cn1` [compound 134]: in test [5], the Kb is 7410 nM. Further, in test [4], the 50% effective concentration (EC50) was 676 nM and the “Emax gpH2R” value came to 0.96±0.03.

`N=C(NCCCCCCCCNC(N)=O)NCCCc1c[nH]cn1` [compound 135]: in test [5], the Kb is 1410 nM. For the same molecule, in test [4], the EC50 is 182 nM and the “Emax gpH2R” value was found to be 0.94±0.05.

`N=C(NCCCCCCCCCCNC(N)=O)NCCCc1c[nH]cn1` [compound 136]: the “Emax hH2R” value in test [1] is 0.45 and 0.45±0.03. In test [2], the “Emax hH3R” value is recorded as −1.20±0.15. The Kb in test [5] was 1000 nM. For the same molecule, in test [4], the response was half-maximal at 295 nM (EC50) and the “Emax gpH2R” value is given as 0.96±0.01.

In the case of `O=C(NC(=S)NCCCc1c[nH]cn1)c1ccccc1` [compound 141, N‐{[3‐(1H‐Imidazol‐4‐yl)propyl]thiocarbamoyl}benzamide], in test [4], the concentration giving a half-maximal response (EC50) is 18600 nM and the “Emax gpH2R” value amounted to 0.43±0.01.

Turning to `NC(=S)NCCCc1c[nH]cn1` [compound 142], in test [4], the concentration for a half-maximal effect (EC50) was 11000 nM and the “Emax gpH2R” value was 0.27±0.02.

In test [5], `CSC(=N)NCCCc1c[nH]cn1` [compound 143, N‐[3‐(1H‐Imidazol‐4‐yl)propyl]‐S‐methylisothiourea] gave a Kb of 3890 nM. Besides, in test [4], it took 7410 nM to reach a half-maximal effect (EC50); the “Emax gpH2R” value was 0.45 and 0.45±0.05. The rel. potency in test [6] (relative to histamine) is 0.1. Moreover, the maximum response in test [6] is 0.23.

In test [5], `O=C(NCCCc1c[nH]cn1)NC(=O)c1ccccc1` [compound 144] gave a Kb of 9550 nM. Further, in test [4], the EC50 is 24000 nM and the “Emax gpH2R” value is 0.15±0.03.

In test [5], `NC(=O)NCCCc1c[nH]cn1` [compound 145, 1‐[3‐(1H‐Imidazol‐4‐yl)propyl]urea] returned a Kb of more than 31600 nM. For the same molecule, in test [4], the EC50 was 269000 nM and the “Emax gpH2R” value came to 0.58±0.02.
